In PubChem BioAssay (NCI):
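Where inhibition never reached the appropriate level, the endpoint shown equals the highest concentration tested. Otherwise, values were interpolated linearly from a five-concentration, 48-hour dose response in 96-well plates. The concentration for full growth arrest is given as TGI.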

Experiments:
Assay in all cases: inhibition of tumour cell growth, NCI panel, 48 h
UACC-62 melanoma = system: UACC-62 melanoma
U251 CNS = system: U251 CNS
LOX IMVI melanoma = system: LOX IMVI melanoma
RXF 393 renal = system: RXF 393 renal
DMS 114 small cell lung = system: DMS 114 small cell lung
HOP-18 NSCLC = system: HOP-18 NSCLC
OVCAR-3 ovarian = system: OVCAR-3 ovarian
SK-MEL-28 melanoma = system: SK-MEL-28 melanoma
K-562 leukemia = system: K-562 leukemia
EKVX NSCLC = system: EKVX NSCLC
NCI-H226 lung = system: NCI-H226 lung
SF-295 CNS = system: SF-295 CNS
CCRF-CEM leukemia = system: CCRF-CEM leukemia
OVCAR-5 ovarian = system: OVCAR-5 ovarian
OVCAR-4 ovarian = system: OVCAR-4 ovarian
NCI-H460 lung = system: NCI-H460 lung
SN12C renal = system: SN12C renal
SNB-78 CNS = system: SNB-78 CNS
RXF-631 renal = system: RXF-631 renal
RPMI-8226 leukemia = system: RPMI-8226 leukemia
SF-539 CNS = system: SF-539 CNS
SW-620 colon = system: SW-620 colon
SK-OV-3 ovarian = system: SK-OV-3 ovarian
HOP-62 NSCLC = system: HOP-62 NSCLC
UACC-257 melanoma = system: UACC-257 melanoma
HCT-15 colon = system: HCT-15 colon
HCT-116 colon = system: HCT-116 colon
SNB-19 CNS = system: SNB-19 CNS
HCC-2998 colon = system: HCC-2998 colon
M19-MEL melanoma = system: M19-MEL melanoma
COLO 205 colon = system: COLO 205 colon
HL-60(TB) leukemia = system: HL-60(TB) leukemia
DLD-1 colon = system: DLD-1 colon
SK-MEL-2 melanoma = system: SK-MEL-2 melanoma
MALME-3M melanoma = system: MALME-3M melanoma
HOP-92 NSCLC = system: HOP-92 NSCLC
LXFL 529 NSCLC = system: LXFL 529 NSCLC
M14 melanoma = system: M14 melanoma
TK-10 renal = system: TK-10 renal
786-0 renal = system: 786-0 renal
UO-31 renal = system: UO-31 renal
MOLT-4 leukemia = system: MOLT-4 leukemia
A549 NSCLC = system: A549 NSCLC
OVCAR-8 ovarian = system: OVCAR-8 ovarian
IGROV1 ovarian = system: IGROV1 ovarian
HT29 colon = system: HT29 colon
KM12 colon = system: KM12 colon
CAKI-1 renal = system: CAKI-1 renal
NCI-H23 lung = system: NCI-H23 lung
SK-MEL-5 melanoma = system: SK-MEL-5 melanoma
NCI-H522 lung = system: NCI-H522 lung
SF-268 CNS = system: SF-268 CNS
SR leukemia = system: SR leukemia
ACHN renal = system: ACHN renal
KM20L2 colon = system: KM20L2 colon
SNB-75 CNS = system: SNB-75 CNS
DMS 273 small cell lung = system: DMS 273 small cell lung
A498 renal = system: A498 renal

Measured: TGI

O=C1OC(CC(=O)c2ccccc2Cl)C(Cl)=C1Cl (centres undefined)
not listed: KM20L2 colon | SNB-75 CNS | DMS 273 small cell lung | A498 renal
> 100 µM: all other assays above

O=C(NC1C2CC3CC(C2)CC1C3)c1ccncn1 (centres undefined)
not listed: LOX IMVI melanoma | RXF 393 renal | HOP-18 NSCLC | RPMI-8226 leukemia | SK-OV-3 ovarian | TK-10 renal | MOLT-4 leukemia | SR leukemia
> 100 µM: all other assays above
